Data set [1] concerns the target T1, ITK (Homo sapiens, UniProt Q08881).
T1 construct: made in house
T1 sequence (Q08881 1-620): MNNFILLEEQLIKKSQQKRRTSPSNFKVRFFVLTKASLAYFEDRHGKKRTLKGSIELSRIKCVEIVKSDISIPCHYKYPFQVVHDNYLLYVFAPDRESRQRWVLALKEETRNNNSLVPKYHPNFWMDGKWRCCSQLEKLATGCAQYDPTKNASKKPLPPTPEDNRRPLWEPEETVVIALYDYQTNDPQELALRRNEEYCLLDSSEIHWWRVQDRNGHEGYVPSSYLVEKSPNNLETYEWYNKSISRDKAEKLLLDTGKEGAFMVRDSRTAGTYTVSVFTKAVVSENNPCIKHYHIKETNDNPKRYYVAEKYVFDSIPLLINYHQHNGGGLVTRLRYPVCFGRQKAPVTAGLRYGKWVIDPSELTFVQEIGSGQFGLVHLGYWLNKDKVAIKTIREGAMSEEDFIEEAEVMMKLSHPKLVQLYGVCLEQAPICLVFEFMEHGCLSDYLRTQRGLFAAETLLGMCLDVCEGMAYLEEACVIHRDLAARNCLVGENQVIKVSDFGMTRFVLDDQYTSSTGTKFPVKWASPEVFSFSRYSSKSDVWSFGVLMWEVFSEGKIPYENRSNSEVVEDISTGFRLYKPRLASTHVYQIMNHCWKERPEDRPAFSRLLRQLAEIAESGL
Briefly: FlashPlate ITK protocol for ITK inhibition determination (ITK autophosphorylation, [γ-33P]ATP). Format: biochemical. The following applies: MBP-tagged ITK, read-out: IC50 (enzyme inhibition)-. On the procedure: ITK kinase is produced with an N-terminal Maltose Binding Protein tag (MW=˜114 kDa) using a Baculovirus expression system. The transfer of radioactive [γ-^33P] phosphate from [γ-^33P]ATP to ITK during the autophosphorylation of ITK is measured by scintillation counting. Streptavidin-coated FlashPlate Plus™ 384 well microplates (PerkinElmer Life Sciences) are designed for in-plate radiometric assays. The interior of each well is permanently coated with a thin layer of scintillant and a covalently bound layer of Streptavidin. ITK is incubated with [γ-^33P]ATP, biotinylated anti-MBP antibody (Cell Signaling Technology™) and test compounds in a 384-well Streptavidin-coated FlashPlate. The biotinylated anti-MBP binds tightly to the MBP-tagged ITK and cross-links it to Streptavidin on the plate surface. Unreacted ^33P-ATP is washed away and ^33P-phosphorylated ITK is measured when the [γ-^33P] incorporated into ITK stimulates the scintillant on the well to emit light. Radioactivity is assessed in a Packard
TopCount scintillation counter. Reagents are pipetted and dispensed using Beckman Biomek robotic equipment. Test compounds (2 μl per well) are pre-diluted from 1 mM 100% dimethyl sulfoxide solutions into water containing 30% dimethyl sulfoxide to produce dose response curves (10 point curves from (final) 30 μM to ˜1 nM); all tests are performed in duplicate. Background binding is assessed by substituting the enzyme inhibitor EDTA (25 mM final concentration) for test compound and maximal binding is assessed by inclusion of assay buffer instead of compound. Test compounds are added to the wells first (2 μl) followed by 10 μl enzyme solution in assay buffer. After 30 minutes pre-incubation, all other reagents are added in a 10 μl volume. The final reagent concentrations/well are as follows: 20 nM enzyme, 0.25 μCi [γ-^33P]ATP, assay buffer: 20 mM HEPES (pH 7.5), 0.15 M NaCl, 3 mM MgCl2, 3 mM MnCl2, 0.01% Triton X-100, 1 mM DTT, 5% glycerol and 0.01% γ-globulin. The plate is incubated at room temperature (RT) for 60 minutes for the kinase reaction. The reaction is stopped with 20 μl of 50 mM EDTA and the biotinylated anti-MBP is allowed to bind to the ITK and the Streptavidin for a further 60 minutes at RT. The unbound reagents are washed away with 2×100 μl phosphate-buffered saline (PBS). Radioactivity is measured for 45 sec/well.

Usually melting point stands for the temperature, or range, at which the solid turns liquid. One may read the IC50 as the point on the concentration scale where inhibition reaches its midpoint.

For `OC1CCN(CCCOc2ccc3cc(-c4n[nH]c5cc(-c6ccccc6)sc45)[nH]c3c2)CC1`, the melting point was 239 to 242 °C. For `COc1cccc(-c2cc3[nH]nc(-c4cc5ccc(OCCCN6CCC(O)CC6)cc5[nH]4)c3s2)c1`, the melting point lay within 205 to 207 °C.

`COc1ccc2[nH]c(-c3n[nH]c4ccsc34)cc2n1` [Example 60, 5-Methoxy-2-(1H-thieno[3,2-c]pyrazol-3-yl)-1H-pyrrolo[3,2-b]pyridine]: the melting point was in the range of 234 to 236 °C. In addition, the IC50 in data set [1] was 224 nM.

(Values after patent US7928231B2, “Thienopyrazoles” (priority 2003, dated 2011).)
